# Like-named read-outs stand apart in the source and are kept apart here.
# What was measured:
# β-glucosidase [1] = assay: In vitro glycosidase inhibition, β-glucosidase (almond); format: biochemical
# Description: (§1) All glycosidases and p-nitrophenyl glycosides were purchased from Sigma-Aldrich Co. The enzyme assays were performed according to the methods described in Kato, A.; Miyauchi, S.; Kato, N.; Nash, R. J.; Yoshimura, Y.; Nakagome, I.; Hirono, S.; Takahata, H.; Adachi, I. Bioorg. Med. Chem. 19, 3558-3568, 2011. The activities were determined using an appropriate p-nitrophenyl glycoside as substrate at the optimum pH of each enzyme. The reaction mixture contained 2 mM of the substrate and the appropriate amount of enzyme. The reaction was stopped by adding 2 mL of 400 mM Na2CO3. The released p-nitrophenol was measured spectrometrically at 400 nm.
# [2] = biological target: T1, α-N-acetyl galactosaminidase (Gallus gallus, UniProt Q90744); assay: In vitro glycosidase inhibition, α-N-acetyl galactosaminidase (chicken liver); format: biochemical
# T1 construct: purchased Sigma-Aldrich Co; host or cells: chicken liver
# T1 sequence (Q90744 1-405): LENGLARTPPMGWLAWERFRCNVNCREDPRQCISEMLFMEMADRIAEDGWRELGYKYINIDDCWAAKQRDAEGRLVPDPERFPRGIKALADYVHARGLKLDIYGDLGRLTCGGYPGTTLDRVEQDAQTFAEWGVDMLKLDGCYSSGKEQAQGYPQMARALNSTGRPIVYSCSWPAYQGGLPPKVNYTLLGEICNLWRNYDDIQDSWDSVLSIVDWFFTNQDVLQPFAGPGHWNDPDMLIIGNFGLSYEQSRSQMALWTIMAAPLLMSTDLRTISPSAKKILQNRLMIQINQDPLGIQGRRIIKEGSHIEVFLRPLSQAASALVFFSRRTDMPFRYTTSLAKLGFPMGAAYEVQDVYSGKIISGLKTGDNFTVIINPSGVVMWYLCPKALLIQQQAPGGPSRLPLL
# Description: as §1
# α-glucosidase [3] = biological target: T2, α-glucosidase (Saccharomyces cerevisiae, UniProt P53341); assay: In vitro glycosidase inhibition, α-glucosidase (yeast); format: biochemical
# T2 construct: purchased Sigma-Aldrich Co
# T2 sequence (P53341 whole entry): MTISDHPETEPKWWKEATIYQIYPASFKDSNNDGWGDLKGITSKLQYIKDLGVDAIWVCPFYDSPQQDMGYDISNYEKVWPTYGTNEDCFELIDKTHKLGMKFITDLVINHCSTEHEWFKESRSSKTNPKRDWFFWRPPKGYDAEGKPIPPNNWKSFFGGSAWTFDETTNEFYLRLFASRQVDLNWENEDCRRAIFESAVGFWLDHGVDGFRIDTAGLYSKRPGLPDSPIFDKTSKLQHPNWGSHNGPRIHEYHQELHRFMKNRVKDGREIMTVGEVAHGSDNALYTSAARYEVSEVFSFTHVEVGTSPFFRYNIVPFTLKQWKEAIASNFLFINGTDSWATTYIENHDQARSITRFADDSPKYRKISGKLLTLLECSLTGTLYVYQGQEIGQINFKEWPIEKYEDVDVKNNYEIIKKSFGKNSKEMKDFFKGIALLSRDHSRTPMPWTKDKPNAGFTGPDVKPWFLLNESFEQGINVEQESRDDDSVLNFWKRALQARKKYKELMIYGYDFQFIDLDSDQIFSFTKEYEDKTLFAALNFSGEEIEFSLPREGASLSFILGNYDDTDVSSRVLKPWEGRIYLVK
# Description: as §1
# α-mannosidase = biological target: T3, α-mannosidase (Canavalia ensiformis, UniProt C0HJB3); assay: In vitro glycosidase inhibition, α-mannosidase (jack beans); format: biochemical
# T3 construct: purchased Sigma-Aldrich Co
# T3 sequence (C0HJB3 1-981): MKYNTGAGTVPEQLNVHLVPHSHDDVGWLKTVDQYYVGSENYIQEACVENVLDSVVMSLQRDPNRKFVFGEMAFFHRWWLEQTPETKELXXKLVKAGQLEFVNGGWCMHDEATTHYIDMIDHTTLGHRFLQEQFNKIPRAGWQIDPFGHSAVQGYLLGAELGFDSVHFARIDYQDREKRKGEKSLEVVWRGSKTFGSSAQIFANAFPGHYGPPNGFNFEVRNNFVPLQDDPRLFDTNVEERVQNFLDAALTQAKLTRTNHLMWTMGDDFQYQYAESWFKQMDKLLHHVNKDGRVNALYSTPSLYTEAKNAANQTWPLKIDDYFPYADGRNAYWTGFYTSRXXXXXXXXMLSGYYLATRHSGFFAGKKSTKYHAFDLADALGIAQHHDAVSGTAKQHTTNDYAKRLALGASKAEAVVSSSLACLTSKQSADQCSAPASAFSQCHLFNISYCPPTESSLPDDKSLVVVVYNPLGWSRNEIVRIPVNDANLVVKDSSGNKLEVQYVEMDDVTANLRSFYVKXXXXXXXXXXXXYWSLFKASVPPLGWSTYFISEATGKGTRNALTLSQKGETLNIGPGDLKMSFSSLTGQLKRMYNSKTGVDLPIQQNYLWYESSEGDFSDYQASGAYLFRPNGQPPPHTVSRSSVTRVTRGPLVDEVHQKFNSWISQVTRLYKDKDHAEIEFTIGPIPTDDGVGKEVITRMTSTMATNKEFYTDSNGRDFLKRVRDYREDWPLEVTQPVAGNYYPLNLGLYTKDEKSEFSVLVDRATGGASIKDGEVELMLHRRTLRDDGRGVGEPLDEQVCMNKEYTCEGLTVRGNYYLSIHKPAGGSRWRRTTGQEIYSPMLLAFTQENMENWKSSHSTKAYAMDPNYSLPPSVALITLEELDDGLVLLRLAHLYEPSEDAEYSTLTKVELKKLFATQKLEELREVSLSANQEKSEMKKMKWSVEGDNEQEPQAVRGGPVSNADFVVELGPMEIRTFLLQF
# Description: as §1
# α-galactosidase = biological target: T4, α-galactosidase (Coffea arabica, UniProt Q42656); assay: In vitro glycosidase inhibition, α-galactosidase (coffee beans); format: biochemical
# T4 construct: purchased Sigma-Aldrich Co
# T4 sequence (Q42656 16-378): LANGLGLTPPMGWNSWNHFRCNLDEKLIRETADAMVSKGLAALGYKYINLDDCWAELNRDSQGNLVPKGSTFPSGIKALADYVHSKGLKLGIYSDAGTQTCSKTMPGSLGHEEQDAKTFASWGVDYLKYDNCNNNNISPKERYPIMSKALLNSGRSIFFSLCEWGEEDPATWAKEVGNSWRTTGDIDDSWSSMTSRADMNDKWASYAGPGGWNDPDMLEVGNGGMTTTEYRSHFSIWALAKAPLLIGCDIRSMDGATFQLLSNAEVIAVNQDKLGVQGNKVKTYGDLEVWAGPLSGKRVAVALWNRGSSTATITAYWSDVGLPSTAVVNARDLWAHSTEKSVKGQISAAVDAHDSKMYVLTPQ
# Description: as §1
# [4] = biological target: β-N-acetyl hexosaminidase; assay: In vitro glycosidase inhibition, β-N-acetyl hexosaminidase (bovine kidney); format: biochemical
# Description: as §1
# α-glucosidase [5] = biological target: T5, α-glucosidase (Oryza sativa subsp. japonica, UniProt Q653V7); assay: In vitro glycosidase inhibition, α-glucosidase (rice); format: biochemical
# T5 construct: purchased Sigma-Aldrich Co
# T5 sequence (Q653V7 34-885): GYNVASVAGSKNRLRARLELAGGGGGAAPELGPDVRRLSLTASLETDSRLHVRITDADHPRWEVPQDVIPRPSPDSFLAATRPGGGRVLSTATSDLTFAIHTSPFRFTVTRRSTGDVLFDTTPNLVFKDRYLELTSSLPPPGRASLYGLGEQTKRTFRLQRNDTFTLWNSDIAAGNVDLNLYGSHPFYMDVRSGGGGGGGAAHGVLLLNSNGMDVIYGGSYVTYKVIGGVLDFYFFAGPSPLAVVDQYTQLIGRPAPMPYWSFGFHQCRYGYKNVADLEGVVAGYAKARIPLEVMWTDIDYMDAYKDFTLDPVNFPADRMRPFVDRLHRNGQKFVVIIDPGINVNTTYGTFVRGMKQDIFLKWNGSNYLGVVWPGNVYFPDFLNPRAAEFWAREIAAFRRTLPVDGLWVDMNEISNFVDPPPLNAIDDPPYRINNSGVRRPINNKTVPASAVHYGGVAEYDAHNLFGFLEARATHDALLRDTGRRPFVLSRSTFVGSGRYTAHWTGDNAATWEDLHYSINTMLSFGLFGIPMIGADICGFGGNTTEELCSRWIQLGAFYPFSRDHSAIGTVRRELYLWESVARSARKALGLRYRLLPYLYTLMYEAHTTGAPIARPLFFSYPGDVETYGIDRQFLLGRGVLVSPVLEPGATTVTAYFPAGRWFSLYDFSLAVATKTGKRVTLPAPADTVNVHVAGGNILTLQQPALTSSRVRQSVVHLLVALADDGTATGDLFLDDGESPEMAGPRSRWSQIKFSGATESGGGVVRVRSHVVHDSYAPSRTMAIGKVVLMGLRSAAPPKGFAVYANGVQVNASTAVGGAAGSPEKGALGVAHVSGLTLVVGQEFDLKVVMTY
# Description: as §1
# β-galactosidase = assay: In vitro glycosidase inhibition, β-galactosidase (bovine liver); format: biochemical
# Description: as §1
# β-glucosidase [6] = assay: In vitro glycosidase inhibition, β-glucosidase (bovine liver); format: biochemical
# Description: as §1
# [7] = tested on: β-N-acetyl hexosaminidase; assay: In vitro glycosidase inhibition, β-N-acetyl hexosaminidase (human placenta); format: biochemical; details: for selectivity of inhibitory activity towards β-N-acetyl hexosaminidase: versus the other glycosidases of Table 1; for IC50: β-N-acetyl hexosaminidase, human placenta
# Description: as §1
# rat intestinal maltase = assay: In vitro glycosidase inhibition, α-glucosidase (rat intestinal maltase); format: biochemical
# Description: as §1
# β-mannosidase = assay: In vitro glycosidase inhibition, β-mannosidase (snail); format: biochemical
# Description: as §1
# [8] = tested on: α-N-acetylglucosaminidase (NAGLU); assay: Enzyme activation assay, MPS IIIB fibroblasts GM02931; format: cell-based, human; details: 3 days, 0-10 μM
# Description: (§2) Compounds (1) and (B) (compound (B) is described in A. Vasella, Helvetica Chimica Acta, 1998, 865) were tested in 3 Sanfillipo patient-derived fibroblast cell lines, named as MPS IIIB fibroblast cells lines below.
# (§3) MPS IIIB fibroblasts (GM01426, GM02931 and GM00737) were cultured in the presence of various concentrations of compounds (1) and (B) (0-10 μM) for 3 days before α-N-acetylglucosaminidase (NAGLU) activity was measured in cell homogenates using 4-methylumbelliferyl-α-N-acetylglucosamine (4-MU-α-GlcNAc) as substrate. Cells were washed twice in phosphate buffered saline, homogenised in water using a small dounce homogeniser, centrifuged at 800 g for 5 min and the supernatant taken for protein and enzyme activity. Protein concentration was determined using the BCA assay (Pierce, UK) according to manufacturer's instructions. An aliquot, (5 μl) of homogenate was added to a well of a 96-well plate containing 10 μl 2 mM 4-MU substrate (in water) and 5 μl 0.2 M sodium acetate buffer, pH 4.3. Following incubation for 3-4 h at 37° C. in a humidified incubator, the reaction was stopped by adding 300 μl 0.5 M glycine/NaOH, pH 10.3 and the fluorescence measured at 460 nm using an excitation wavelength of 350 nm, em 460 nm. Enzyme activation is defined as the fold increase in fluorescence due to enzyme activity (FU/μg protein) in treated cells compared to untreated cells. […]
# [9] = tested on: α-N-acetylglucosaminidase (NAGLU); assay: Enzyme activation assay, MPS IIIB fibroblasts GM01426; format: cell-based, human; details: 3 days, 0-10 μM
# Description: as §2, §3
# [10] = tested on: α-N-acetylglucosaminidase (NAGLU); assay: Enzyme activation assay, MPS IIIB fibroblasts GM00737; format: cell-based, human; details: 3 days, 0-10 μM
# Description: as §2, §3
# [11] = 1000 μM, read-out: % of inhibition at 1000 μM
# [12] = read-out: % of inhibition at 1000 μM
Compound,IC50 (β-glucosidase [1]),% of inhibition at 1000 μM (β-glucosidase [1]) [%],"inhibition at 1000 µM [2, 11] [%]",inhibition at 1000 µM ([2]; read-out: IC50) [%],inhibition at 1000 µM (α-glucosidase [3]; [12]) [%],inhibition at 1000 µM (α-mannosidase; [11]) [%],inhibition at 1000 µM (α-mannosidase; read-out: IC50) [%],inhibition at 1000 µM (α-galactosidase; [11]) [%],inhibition at 1000 µM (α-galactosidase; read-out: IC50) [%],IC50 [4] [µM],inhibition at 1000 µM (α-glucosidase [5]; [11]) [%],inhibition at 1000 µM (α-glucosidase [5]; read-out: IC50) [%],% of inhibition at 1000 μM (β-galactosidase) [%],IC50 (β-glucosidase [6]),% of inhibition at 1000 μM (β-glucosidase [6]) [%],selectivity of inhibitory activity towards β-N-acetyl hexosaminidase [7],IC50 [7] [µM],IC50 (rat intestinal maltase),% of inhibition at 1000 μM (rat intestinal maltase) [%],IC50 (β-mannosidase),further results
"CC(=O)N[C@@H]1[C@@H](O)[C@H](O)[C@@H](CO)N[C@H]1CO [1′, N-((2R,3R,4R,5S,6R)-3,4-dihydroxy-2,6-bis(hydroxymethyl)piperidin-5-yl)acetamide]",NI (No Inhibition (less than 50% inhibition at 1000 μM)),18.3,42.7,< 50,15.4,0,< 50,13.1,< 50,65,15.9,< 50,5.7,NI (No Inhibition (less than 50% inhibition at 1000 μM)),15.5,selective inhibitory activity,72,NI (No Inhibition (less than 50% inhibition at 1000 μM)),1.3,NI (No Inhibition (less than 50% inhibition at 1000 μM)),"inhibition at 1000 µM (α-glucosidase [3]; α-glucosidase, yeast, read-out: IC50): < 50%; % of inhibition at 1000 μM (β-mannosidase): 0%"
"CC(=O)N[C@@H]1[C@@H](O)[C@H](O)[C@@H](CO)N[C@@H]1CO [Compound 1, N-((2R,3R,4R,5S,6S)-3,4-dihydroxy-2,6-bis(hydroxymethyl)piperidin-5-yl)acetamide]",NI (No Inhibition (less than 50% inhibition at 1000 μM)),5.0,42.4,< 50,18.5,2.3,< 50,19.7,< 50,67,32.3,< 50,5.0,NI (No Inhibition (less than 50% inhibition at 1000 μM)),4.4,selective inhibitory activity,56,NI (No Inhibition (less than 50% inhibition at 1000 μM)),26.7,NI (No Inhibition (less than 50% inhibition at 1000 μM)),inhibition at 1000 µM (α-glucosidase [3]; read-out: IC50): < 50%; % of inhibition at 1000 μM (β-mannosidase): 1.9%
"N-((2R,3R,4R,5S,6S)-3,4-dihydroxy-2,6-bis(hydroxymethyl)piperidin-5-yl)acetamide [Compound 1]",–,–,–,–,–,–,–,–,–,–,–,–,–,–,–,–,–,–,–,–,"NAGLU enzyme activation, result in words [8]: activation at lower concentrations; NAGLU enzyme activation, result in words [9]: concentration dependent increase up to 1 μM; NAGLU enzyme activation (fold increase in FU/μg protein vs untreated cells) ([9]; best activation seen): 2.4 fold; NAGLU enzyme activation, result in words [10]: activation at lower concentrations"

# Reference: patent US20140296288A1, “IMINO-SUGAR C-GLYCOSIDES, PREPARATION AND USE THEREOF” (UNIVERSITE PIERRE ET MARIE CURIE (PARIS 6), priority 2011, published 2014)
